# Source: patent publication US12290073B2, “Anti-microbial compound and methods of use” (SHENZHEN UNIVERSITY, priority 2019, dated 2025)
# Where two headings read alike, the source gives them in different places.
# Experiments:
# Assay in all cases: Anti-microbial rate of finished cotton textiles, FZ/T73023-2006 D.8 shocking method
# Format in all cases: cell-based
# [1] = system: Staphylococcus Aureus (S. aureus, ATCC 6538); conditions: Staphylococcus aureus, ATCC6538, finishing liquid 1.0 wt %, read-out: Anti-microbial rate (%) of cotton textiles finished with compound E (1.0 wt %), S. aureus
# Text: (§1) Each of the reaction products (i.e., compound E) according to Examples 1-21 was used to prepare an anti-microbial agent (e.g., a finishing liquid), and the anti-microbial effects were different depending on compound E and conditions of use.
# (§2) Remarks: 1) in the data of anti-microbial rate in Table 5: Examples 1-9 used a soaking-rolling-drying process to finish cotton fabric, where the bath ratio (i.e., the ratio of the weight of a liquid containing compound E to the weight of the cotton fabric) was 20:1, the residual liquid ratio was 90%, and the drying process was conducted at 85° C. for 30 minutes; Examples 10-18 were prepared by a soaking-high speed spinning-drying method, where the bath ratio was 20:1, the residual liquid ratio was 90%, and the drying process was conducted at 85° C. for 20 min; Examples 19-21 were prepared by a spraying-spinning-drying process with a bath ratio of 30:1, a residual liquid ratio of 85% after drying, and the drying process was conducted at 105° C. for 5 minutes.
# (§3) 2) Table 5 data test method: FZ/T73023-2006 anti-microbial textiles D.8 shocking method. In addition, the inhibition zone method (FZ/T73023-2006 anti-microbial textiles—Appendix E—inhibition zone method) was used to test whether the active compound (E) was released from the finished cotton textiles, the inhibition zone test result of the 21 examples and zwitterions were 0 mm, and thus compound E was not released from the finished cotton textiles. The anti-microbial finishing agent used in the comparative experiment was zwitterion with the molecular structure
# (§4) 3) The composition of the finishing liquid in Table 5 was: compound E 1.0 wt %, sodium bicarbonate 1.0 wt %, and the rest of the finishing liquid was water.
# [2] = system: Escherichia Coli (E. coli, ATCC25922); conditions: Escherichia coli, ATCC25922, finishing liquid 1.0 wt %, read-out: Anti-microbial rate (%) of cotton textiles finished with compound E (1.0 wt %), E. coli
# Text: as §1, §2, §3, §4
# [3] = system: Candida Albicans (C. albicans 10231); conditions: Candida albicans, finishing liquid 1.0 wt %, read-out: Anti-microbial rate (%) of cotton textiles finished with compound E (1.0 wt %), C. albicans
# Text: as §1, §2, §3, §4
Compound,killing at 1 % ([1]; times of washing 0) [%],killing at 1 % ([1]; times of washing 10) [%],killing at 1 % ([1]; times of washing 50) [%],killing at 1 % ([2]; times of washing 0) [%],killing at 1 % ([2]; times of washing 10) [%],killing at 1 % ([2]; times of washing 50) [%],killing at 1 % ([3]; times of washing 0) [%],killing at 1 % ([3]; times of washing 10) [%],killing at 1 % ([3]; times of washing 50) [%]
"C[N+](C)(CCCS(=O)(=O)[O-])CCOc1nc(Cl)nc(Cl)n1 [Comparative Experiment, reference compound]",99.9,86,80,99.9,83,75,95,78,69
C[N+](C)(C)CCNc1nc(Cl)nc(Cl)n1 [Example 3],100,99.9,99.9,100,99.9,99.2,99.9,99.9,99.9
C[N+](C)(C)COc1nc(Cl)nc(Cl)n1 [Example 5],100,99.9,99.9,100,99.9,99.1,99.9,99.9,97.9
CCCCCCCC[N+](C)(C)CC(C)Oc1nc(Cl)nc(Cl)n1 (stereo not drawn) [Example 6],100,99.9,99.9,100,99.9,99.5,99.9,99.9,97.9
CCCCCCCCCCCCCC[n+]1ccn(CCCNc2nc(C)nc(Cl)n2)c1 [Example 7],100,99.9,99.9,100,99.9,99.9,99.9,99.9,98.6
CCCCCCCCCC[n+]1ccc(CCOc2nc(Cl)nc(Br)n2)cc1 [Example 8],100,99.9,99.9,100,99.9,99.5,99.9,99.9,98.9
C[n+]1ccc(CNc2nc(Cl)nc([N+](=O)[O-])n2)cc1 [Example 9],100,99.9,99.9,100,99.9,99.9,99.9,99.9,99.2
Cc1nc(Cl)nc(OCCn2cc[n+](C)c2)n1 [Example 12],100,99.9,99.5,100,99.9,98.9,99.9,99.9,91.9
